Experiment [1] relates to C57BL/6 mice. Kind of experiment: In vivo delivery of EPO-encoded mRNA LNP via intravenous route, serum EPO ELISA. On the set-up: key to EPO Protein expression: IV in mice: *: The number of asterix symbols indicates protein expression levels interpreted by the inventors from quantitative data; **: The number of asterix symbols indicates protein expression levels interpreted by the inventors from quantitative data; ***: The number of asterix symbols indicates protein expression levels interpreted by the inventors from quantitative data; ****: The number of asterix symbols indicates protein expression levels interpreted by the inventors from quantitative data; *****: The number of asterix symbols indicates protein expression levels interpreted by the inventors from quantitative data; *******: The number of asterix symbols indicates protein expression levels interpreted by the inventors from quantitative data. To be noted: for EPO Protein expression: IV in mice: qualitative grade interpreted from quantitative data. The text has this: Lipid Nanoparticles with the composition IL/DSPC/Cholesterol/PEG-DMG2000 (LM 02—see Table 3) were used to encapsulate recombinant human erythropoietin (EPO) encoded mRNA with 5-moU modifications [TriLink CleanCapo 5-moU EPO mRNA L7201]. To create the LNP, lipid mix in ethanol was microfluidically mixed with a low PH buffered solution of 5-moU EPO mRNA mixer at an N/P ratio of 6 using a NanoAssemblr® Ignite™ microfluidic mixer. The microfluidically mixed particles were downstream processed using Amicon® ultra 15 10 kDa MWCO units (EMD Millipore) filtration technique. The RNA loaded lipid particles were then characterized for size, PDI and Encapsulation Efficiency (EE). Size and PDI were measured using dynamic light scattering techniques described above, and nucleic acid encapsulation efficiency was calculated using a Quant-iT RiboGreen RNA assay as described supra, modified to use hEPO mNA as the standard instead if the standard RNA in the kit. The hydrodynamic diameter of these mRNA-LNPs was ˜70 nm with a PDI in the range of 0.02 to 0.1 and an encapsulation efficiency of ˜97.8%.
Animals were handled according to the Institutional Animal Care and Use Committee ethics protocols. For experiments, 6-8 week old C57BL/6 mice were purchased from Envigo (South Kent, WA, USA). For in vivo activity, female C57BL/6 mice were treated intravenously with EPO mRNA LNPs at specified dosages of 0.5-3 mg/Kg. Samples of 50-75 μL of blood were collected 6 h post administration via saphenous vein, and at regular time intervals of 24 h or 48 h.
After harvest, blood was immediately prepared to produce serum samples using standard techniques, and stored at −80 degrees C. Briefly, after collection, the blood was allowed to clot at room temperature for 15-30 minutes. The clot was removed by centrifuging the tubes at 1000-2000×g for 10 min at 4 degrees Celsius. The clear golden-yellow color supernatant was carefully removed and transferred to sterile screw-capped clear polypropylene tubes on ice. The serum was then stored, if necessary, at −80° C. until analysis.
Samples were thawed, then analyzed at appropriate dilutions for EPO protein expression and for cytokine/chemokine levels. The total serum EPO levels were evaluated using Quantikine® IVD EPO ELISA kit (Bio-Techne, Minneapolis, MN, USA).
Following i.v administration of a 0.5 mg/Kg dose of recombinant human EPO-encoded mRNA LNPs containing ionizable lipid MC3, PNI 121 or PNI 123 using the LM02 composition at N/P 6, EPO expression levels at 6 h (upper, FIG. 6) and at 24 h (lower, FIG. 6) in C56BL/6 mice were examined; hEPO protein was measured using Quantikine® IVD® ELISA Human Erythropoietin Immunoassay protocol.
Background: In an ELISA, binding on a coated surface is turned into a signal by an enzyme label.

Experiment [2] has as its system C57BL/6 mice. Description: In vivo delivery of OVA-encoded mRNA LNP via intramuscular administration, anti-OVA-IgG ELISA of serum. Conditions: 5 μg OVA mRNA i.m. on Day 1 and 10, serum 2 weeks post second immunization, versus 50 ug OVA protein, FIG. 10. Here is the method: A lipid mixture of LM02b composition in ethanol was mixed with a low pH buffered solution of Ova mRNA at an N/P ratio of 8 using a NanoAssemblr® Ignite™ microfluidic mixer. The LNP were downstream processed using the Amicon™ ultra filtration technique and characterized for size, PDI and encapsulation efficiency. Size and PDI were measured using dynamic light scattering techniques, and nucleic acid encapsulation efficiency was calculated from a modified Quant-iT RiboGreen™ RNA assay. The hydrodynamic diameter of these mRNA-LNPs was ˜76 nm with a polydispersity index of 0.01 to 0.12 and an encapsulation efficiency of ˜95%
All animals were handled according to the Institutional Animal Care and Use Committee ethics protocols. For experiments, 6-8 week old C57BL/6 mice (n=4) were purchased from Envigo. […] Aliquots of serum samples were thawed and analyzed at appropriate dilutions for Ova expression and for IgG measurements using standard ELISA techniques.
Anti-OVA-IgG ELISA of serum samples: Sera from the immunized mice were collected at 2 weeks post second immunization. OVA—specific production of IgG in response to OVA-encoded mRNA in various LNPs were measured by ELISA as described supra. […] After 30 minutes of incubation, a stop solution of 2 N sulphuric acid was added and a plate reader was used to determine absorbance at 450 nm. […]

As to `CC/C=C\CC1C(CC(=O)OCCC(CCCCCCCC)OC(=O)C(CCCCCC)CCCCCCCC)CCC1OC(=O)C1(C)CCN(C)CC1` (stereo not shown) [PNI 565], the “EPO Protein expression: IV in mice” value with C57BL/6 mice [1] was “***”.

Turning to `CC/C=C\CC1C(CC(=O)OCC(COCCCCCCCC/C=C\C/C=C\CCCCC)OCCCCCCCC/C=C\C/C=C\CCCCC)CCC1OC(=O)CCCN(C)C` (stereo not shown) [PNI 101], in the experiment with C57BL/6 mice [1], the “EPO Protein expression: IV in mice” value is given as “**”. In the case of `CCCCCCCCC1CC1CCCCCCCCOCC(COC(=O)CC1CCC(OC(=O)CCCN(C)C)C1CC1CC1CC)OCCCCCCCCC1CC1CCCCCCCC` (stereo not shown) [PNI 545], the “EPO Protein expression: IV in mice” value in the experiment on C57BL/6 mice [1] is reported as “***”. Regarding `CC/C=C\CC1C(CC(=O)OCC(COCCCCCCCC/C=C\C/C=C\CCCCC)OCCCCCCCC/C=C\C/C=C\CCCCC)CCC1OC(=O)CCCN(CC)CC` (stereo not shown) [PNI 542], in the experiment with C57BL/6 mice [1], the “EPO Protein expression: IV in mice” value is listed as “***”.

`CC/C=C\CC1C(CC(=O)OC(CCCCCCCCC2CC2CCCCCCCC)CCCCCCCCC2CC2CCCCCCCC)CCC1OC(=O)C1(C)CCN(C)CC1` (stereo not shown) [PNI 560]: the “EPO Protein expression: IV in mice” value in the experiment with C57BL/6 mice [1] is “****”. On to `CC/C=C\CC1C(CC(=O)OCC(COCCCCCCCC/C=C\C/C=C\CCCCC)OCCCCCCCC/C=C\C/C=C\CCCCC)CCC1OC(=O)CCCN1CCCC1` (stereo not shown) [PNI 558], for which the “EPO Protein expression: IV in mice” value with C57BL/6 mice [1] was “***”. The same measure, in the same setting: next, `CC/C=C\CC1C(CC(=O)OCC(COCCCCCCCC/C=C\C/C=C\CCCCC)OCCCCCCCC/C=C\C/C=C\CCCCC)CCC1OC(=O)CC1CCN(C)C1` (stereo not shown) [PNI 557]: “**”. `CC/C=C\CC1C(CC(=O)OC(CCCCCCCCC2CC2CCCCCCCC)CCCCCCCCC2CC2CCCCCCCC)CCC1OC(=O)CCCN(C)C` (stereo not shown) [PNI 516]: the “serum rhEPO expression level” value with C57BL/6 mice [1] (i.v., 0.5 mg/Kg, FIG. 8) is reported as “on par with MC3”. Besides, the “EPO Protein expression: IV in mice” value in the experiment on C57BL/6 mice [1] is reported as “****”. For the compound `CCCCCCCCC1CC1CCCCCCCCOCC(COC(=O)CC1CCC(OC(=O)CCN(C)C)C1CC1CC1CC)OCCCCCCCCC1CC1CCCCCCCC` (stereo not shown) [PNI 546], the “EPO Protein expression: IV in mice” value in the experiment with C57BL/6 mice [1] was “*”. For `CC/C=C\CC1C(CC(=O)OCC(COCCCCCCCC/C=C\C/C=C\CCCCC)OCCCCCCCC/C=C\C/C=C\CCCCC)CCC1OC(=O)C1CCN(C)CC1` (stereo not shown) [PNI 132], the “OVA-specific IgG response” value in the experiment on C57BL/6 mice [2] was “the same or higher IgG response as that of a 10 fold higher dose of OVA protein”. In addition, in the experiment with C57BL/6 mice [1], the “EPO Protein expression: IV in mice” value was “***”. With `CC/C=C\CC1C(CC(=O)OC(CCCCCCCCC2CC2CCCCCCCC)CCCCCCCCC2CC2CCCCCCCC)CCC1OC(=O)CCN(C)C` (stereo not shown) [PNI 549], in the experiment on C57BL/6 mice [1], the “EPO Protein expression: IV in mice” value is on record as “***”. `CC/C=C\CC1C(CC(=O)OCCC(CCCCCCCC)OC(=O)C(CCCCCC)CCCCCCCC)CCC1OC(=O)CCN(C)C` (stereo not shown) [PNI 554]: the “EPO Protein expression: IV in mice” value with C57BL/6 mice [1] was “***”. Consider `CC/C=C\CC1C(CC(=O)OCC(COCCCCCCCCC2CC2CCCCCCCC)OCCCCCCCCC2CC2CCCCCCCC)CCC1OC(=O)CCN(C)C` (stereo not shown) [PNI 544], for which, in the experiment with C57BL/6 mice [1], the “EPO Protein expression: IV in mice” value is given as “***”. The same measure, in the same setting: next, `CC/C=C\CC1C(CC(=O)OCC(COCCCCCCCC/C=C\C/C=C\CCCCC)OCCCCCCCC/C=C\C/C=C\CCCCC)CCC1OC(=O)CC1CCCCN1C` (stereo not shown) [PNI 559]: “***”. On to `CC/C=C\CC1C(CC(=O)OCC(COCCCCCCCC/C=C\C/C=C\CCCCC)OCCCCCCCC/C=C\C/C=C\CCCCC)CCC1OC(=O)C1(C)CCN(C)CC1` (stereo not shown) [PNI 123], for which the “OVA-specific IgG response” value in the experiment on C57BL/6 mice [2] was “the same or higher IgG response as that of a 10 fold higher dose of OVA protein”. Also, the “delivering hEPO and expressing hEPO in vivo” value with C57BL/6 mice [1] (i.v., 1 and 3 mg/Kg, LM02, N/P 6, 6 h and 24 h, FIG. 7) is “performed very well against MC3 LNP”. Also, the “EPO Protein expression: IV in mice” value in the experiment with C57BL/6 mice [1] was “***”.

For the origin of these results see US12503432B2, “Ionizable lipids for nucleic acid delivery” (Global Life Sciences Solutions Canada ULC, priority 2019, dated 2025).
